Holding throughout (format): biochemical
Assay [1] has as its target T1, Aβ42 (Homo sapiens, UniProt P05067).
T1 construct: The recombinant Aβ (M1-42) peptide; made in house; host or cells: E. coli BL21 Gold (DE3)
As to the kind of experiment: ThT Aβ42 aggregation kinetics with 1-5% pre-formed fibril seeds (surface-catalyzed secondary nucleation). Conditions: 2 μM Aβ42, 1-5% seeds, 0.5-fold excess. Here is the method: For the seeded experiments, preformed fibrils were prepared just prior to the experiment. Kinetic experiments were set up just as above for a […] Aβ42 samples in 20 mM sodium phosphate buffer, pH 8 with 200 μM EDTA, 0.02% NaN3 and 20 μM ThT. The ThT fluorescence was monitored for 3 hours to verify the formation of fibrils.
(§1) Samples were then collected from the wells into low-binding tubes and sonicated for 2 min in a sonicator bath at room temperature. Under the considered conditions (i.e. 4 μM Aβ42), the monomer concentration is negligible at equilibrium (31). The final concentration of fibrils, in monomer equivalents, was considered equal to the initial concentration of monomer. Fibrils were then added to freshly prepared monomer in order to reach either 5% or 10% fibrils final concentration.
(§2) Assays were initiated by placing the 96-well plate at 37° C. under quiescent conditions in a plate reader (Fluostar Omega, Fluostar Optima or Fluostar Galaxy, BMGLabtech, Offenburg, Germany). The ThT fluorescence was measured through the bottom of the plate with a 440 nm excitation filter and a 480 nm emission filter. The ThT fluorescence was followed for three repeats of each sample. […]
For the seeded experiments, preformed fibrils were prepared just prior to the experiment. […] The ThT fluorescence was monitored for 3 hours to verify the formation of fibrils. […]
Target sequence in this assay (P05067 672-713 limits assumed): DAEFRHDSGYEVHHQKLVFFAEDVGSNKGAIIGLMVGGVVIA

Assay [2] has as its target T1, Aβ42. As to the kind of experiment: ThT-based Aβ42 aggregation kinetics under quiescent (unseeded) conditions. Particulars: for ranking of efficacy within set: 2 μM Aβ42; for change of inhibitory activity relative to parent scaffold: structural comparison among RAR/RXR modulators. Here is the method:
Solutions of monomeric peptides were prepared by dissolving the lyophilized Aβ42 peptide in 6 M GuHCl. Monomeric forms were purified from potential oligomeric species and salt using a Superdex 75 10/300 GL column (GE Healthcare) at a flowrate of 0.5 mL/min, and were eluted in 20 mM sodium phosphate buffer, pH 8 supplemented with 200 μM EDTA and 0.02% NaN3. The center of the peak was collected and the peptide concentration was determined from the absorbance of the integrated peak area using ε280=1400 l mol^−1 cm^−1. The obtained monomer was diluted with buffer to the desired concentration and supplemented with 20 μM Thioflavin T (ThT) from a 1 mM stock. All samples were prepared in low binding eppendorf tubes on ice using careful pipetting to avoid introduction of air bubbles. Each sample was then pipetted into multiple wells of a 96-well half-area, low-binding, clear bottom and PEG coating plate (Corning 3881), 80 μL per well.
We verified that the addition of 1% DMSO in the reaction mixture has no effect on Aβ42 aggregation.
Assays were initiated by placing the 96-well plate at 37° C. under quiescent conditions in a plate reader (Fluostar Omega, Fluostar Optima or Fluostar Galaxy, BMGLabtech, Offenburg, Germany). The ThT fluorescence was measured through the bottom of the plate with a 440 nm excitation filter and a 480 nm emission filter. The ThT fluorescence was followed for three repeats of each sample.
The time evolution of the total fibril mass concentration, M(t), is described by the following integrated rate law (30, 32)
[formula] where the kinetic parameters B±, C±, κ, κ∞ and ? are functions of the two ? combinations of the microscopic rate constants k+k2 and knk2, where kn, k+ and k2 are the primary nucleation, elongation and secondary nucleation rate constants, respectively.
The time evolution of the total fibril mass concentration, M(t), is described by the following integrated rate law
[formula] where the kinetic parameters B±, C±, κ, κ∞ and ? are functions of the two combinations of the microscopic rate constants k+k2 and knk2, where kn, k+ and k2 are the primary nucleation, elongation and secondary nucleation rate constants, respectively. Aβ42 alone in 1% DMSO was first modeled to obtain the k+k2 and knk2 combined microscopic rate constants.
With the introduction of different small molecules, the aggregation process can be inhibited by one or more individual microscopic reactions. Microscopic rate constants k+k2 and knk2 were obtained in the presence of the molecules, and compared to the initial values of Aβ42 alone. This comparison allows one to understand which rate was mainly perturbed, as well as the potency of the compounds (by relative changes of their microscopic rates) with respect to each other.
Target sequence in this assay (P05067 671-713): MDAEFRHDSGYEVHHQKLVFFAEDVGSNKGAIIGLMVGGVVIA

In assay [3] the target is T1, Aβ42. Briefly: ThT Aβ42 aggregation kinetics with 10% pre-formed fibril seeds (elongation dominant). Conditions: 2 μM Aβ42, 5-fold excess. Here is the method: as §1, §2
Target sequence in this assay (P05067 672-713 limits assumed): as the sequence (P05067 672-713 limits assumed) above

As to `CCCCCOc1cc2c(cc1-c1cc(/C=C/C(=O)O)ccc1O)C(C)(C)CCC2(C)C` [UVI3003], the “decrease of rate of surface-catalyzed secondary nucleation (k2)” value at Aβ42 [1] stood at 75%. On Aβ42 [2], the “ranking of efficacy within set” value is “most effective molecule within Set B”. For the same compound, on Aβ42 [3], the “effect on aggregation kinetics / elongation with 10% fibril seeds” value is “no effect could be observed”.
Turning to `CC1(C)C(=O)C(C)(C)c2cc(C(=O)Nc3ccc(C(=O)O)cc3)ccc21` [BMS753], the “delay / effect on Aβ42 aggregation” value on Aβ42 [2] (2 μM Aβ42, 3-fold excess) was “did not show any effect”. The “effect on aggregation kinetics of Aβ42” value at Aβ42 [2] (fold-excesses as high as 5) was “did not show any effect”.
Regarding `C/C(=C\c1ccc(C(=O)O)cc1)c1ccc2c(c1)C(C)(C)CCC2(C)C` [TTNPB], at Aβ42 [2], the “effect on Aβ42 aggregation of linker variants of bexarotene” value is “delayed the aggregation of Aβ42 to different extent” and the “change of inhibitory activity relative to parent scaffold” value was “increase in inhibitory activity”.
For the compound `CC1(C)CC=C(c2cnc3ccccc3c2)c2cc(C(=O)Nc3ccc(C(=O)O)cc3)ccc21` [BMS195614], the “change of inhibitory activity relative to parent scaffold” value at Aβ42 [2] is listed as “substantial increase in primary nucleation inhibitory activity”.
On the same count and under the same terms, the value for `CC1(C)CC=C(C#Cc2ccccc2)c2cc(/C=C/c3ccc(C(=O)O)cc3)ccc21` [BMS493] was “same effect”.
Turning to `CC1(C)CCC(C)(C)c2cc(C3(c4ccc(C(=O)O)cc4)OCCO3)ccc21` [SR11237], at Aβ42 [2], the “effect on Aβ42 aggregation of linker variants of bexarotene” value is reported as “delayed the aggregation of Aβ42 to different extent”.
On the same count and under the same terms, as for `CC1(C)CCC(C)(C)c2cc(NC(=O)c3ccc(C(=O)O)cc3)ccc21` [Tamibarotene], the entry is “delayed the aggregation of Aβ42 to different extent”.
Turning to `NCCCS(=O)(=O)O` [tramiprosate], the “effect on Aβ42 aggregation” value at Aβ42 [2] (even when present in 20-fold excess) is “no effects”.
Turning to `CC1(C)CCC(C)(C)c2cc(C3(c4ccc5cc(C(=O)O)ccc5c4)SCCS3)ccc21` [MM11253], the “ranking of efficacy within set” value on Aβ42 [2] is “most effective molecules within Set C”.
As for `COc1ccc(-c2ccc3cc(C(=O)O)ccc3c2)cc1C12CC3CC(CC(C3)C1)C2` [Adapalene], the “ranking of efficacy within set” value on Aβ42 [2] is “most effective molecules within Set C”.

Values taken from patent publication US11536729B2, “Method of identifying novel protein aggregation inhibitors based on chemical kinetics” (Cambridge Enterprise Limited, priority 2016, dated 2022).
